pIC50: −log10 of the molar value. Blank lines part the entries; values can stand above or below the compound they belong to.
Legend:
[1] = biological target: T1, Endoplasmic reticulum aminopeptidase 2 (Homo sapiens, UniProt Q6P179); assay: Inhibition of ERAP2 (unknown origin) using R-AMC as substrate
Aminopeptidase N = Aminopeptidase N (Homo sapiens, UniProt P15144); assay: Inhibition of FLAG-tagged human recombinant Aminopeptidase N
[2] = biological target: T1, Endoplasmic reticulum aminopeptidase 2; assay: Inhibition of C-terminal Hexa-histidine-tagged human recombinant ERAP2 expressed in Sf9 cells using R-AMC as substrate incubated for 15 mins by Michaelis-Menten analysis
[3] = biological target: T2, Endoplasmic reticulum aminopeptidase 1 (Homo sapiens, UniProt Q9NZ08); assay: Inhibition of C-terminal Hexa-histidine-tagged human recombinant ERAP1 expressed in Sf9 cells using L-AMC as substrate incubated for 15 mins by Michaelis-Menten analysis
[4] = biological target: T2, Endoplasmic reticulum aminopeptidase 1; assay: Inhibition of ERAP1 (unknown origin) using L-AMC as substrate
[5] = Inhibition of C-terminal Hexa-histidine-tagged human recombinant IRAP expressed in Sf9 cells using R-AMC as substrate incubated for 15 mins by Michaelis-Menten analysis
Cytosol aminopeptidase = Cytosol aminopeptidase (Homo sapiens, UniProt P28838); assay: Inhibition of human recombinant Leucine aminopeptidase 3
[6] = biological target: T3, Leukotriene A-4 hydrolase (Homo sapiens, UniProt P09960); assay: Inhibition of full length human recombinant Leukotriene A-4 hydrolase expressed in baculovirus infected Insect cells; set-up: species or system Insect cell
T3 sequence (P09960 whole entry): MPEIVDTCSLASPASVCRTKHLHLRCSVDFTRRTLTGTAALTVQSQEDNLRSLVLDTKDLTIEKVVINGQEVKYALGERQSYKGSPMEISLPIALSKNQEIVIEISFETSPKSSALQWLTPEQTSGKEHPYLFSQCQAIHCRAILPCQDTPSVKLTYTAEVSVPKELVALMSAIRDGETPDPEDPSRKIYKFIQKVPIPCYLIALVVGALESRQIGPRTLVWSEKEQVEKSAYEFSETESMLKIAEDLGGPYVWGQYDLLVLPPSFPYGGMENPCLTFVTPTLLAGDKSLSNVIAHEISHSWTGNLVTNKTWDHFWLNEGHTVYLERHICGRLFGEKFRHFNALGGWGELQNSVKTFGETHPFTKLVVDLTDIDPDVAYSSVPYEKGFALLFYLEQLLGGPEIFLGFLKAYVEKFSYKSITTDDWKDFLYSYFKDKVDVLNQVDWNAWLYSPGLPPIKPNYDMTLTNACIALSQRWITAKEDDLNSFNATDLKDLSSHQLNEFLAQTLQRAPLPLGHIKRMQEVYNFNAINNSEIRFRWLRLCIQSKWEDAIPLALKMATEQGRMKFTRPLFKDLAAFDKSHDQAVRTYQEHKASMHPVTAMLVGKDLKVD

T1 sequence (Q6P179 whole entry): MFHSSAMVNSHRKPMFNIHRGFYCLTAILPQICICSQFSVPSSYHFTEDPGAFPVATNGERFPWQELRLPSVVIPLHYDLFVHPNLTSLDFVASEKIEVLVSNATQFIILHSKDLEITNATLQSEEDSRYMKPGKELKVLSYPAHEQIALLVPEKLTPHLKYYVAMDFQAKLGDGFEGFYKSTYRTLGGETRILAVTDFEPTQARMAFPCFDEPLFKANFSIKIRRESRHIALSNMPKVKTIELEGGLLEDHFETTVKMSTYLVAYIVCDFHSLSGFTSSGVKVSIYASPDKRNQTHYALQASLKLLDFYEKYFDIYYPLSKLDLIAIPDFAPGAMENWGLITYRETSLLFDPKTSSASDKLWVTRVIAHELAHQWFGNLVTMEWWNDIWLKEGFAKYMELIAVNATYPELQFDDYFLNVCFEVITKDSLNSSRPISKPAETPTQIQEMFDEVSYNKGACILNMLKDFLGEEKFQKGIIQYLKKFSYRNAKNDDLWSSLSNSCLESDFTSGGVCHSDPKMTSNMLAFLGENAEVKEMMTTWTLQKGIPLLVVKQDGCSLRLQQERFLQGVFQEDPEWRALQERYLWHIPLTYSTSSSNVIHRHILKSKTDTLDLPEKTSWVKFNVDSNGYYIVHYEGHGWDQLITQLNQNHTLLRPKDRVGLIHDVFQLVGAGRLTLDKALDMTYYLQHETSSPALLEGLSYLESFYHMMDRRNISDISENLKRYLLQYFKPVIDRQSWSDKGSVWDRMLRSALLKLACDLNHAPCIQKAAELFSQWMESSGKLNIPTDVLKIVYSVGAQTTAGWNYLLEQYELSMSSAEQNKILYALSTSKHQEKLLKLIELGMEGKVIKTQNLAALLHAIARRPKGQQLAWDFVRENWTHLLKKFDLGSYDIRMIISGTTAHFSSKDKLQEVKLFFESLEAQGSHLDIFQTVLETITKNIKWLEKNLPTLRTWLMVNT
T2 sequence (Q9NZ08 whole entry): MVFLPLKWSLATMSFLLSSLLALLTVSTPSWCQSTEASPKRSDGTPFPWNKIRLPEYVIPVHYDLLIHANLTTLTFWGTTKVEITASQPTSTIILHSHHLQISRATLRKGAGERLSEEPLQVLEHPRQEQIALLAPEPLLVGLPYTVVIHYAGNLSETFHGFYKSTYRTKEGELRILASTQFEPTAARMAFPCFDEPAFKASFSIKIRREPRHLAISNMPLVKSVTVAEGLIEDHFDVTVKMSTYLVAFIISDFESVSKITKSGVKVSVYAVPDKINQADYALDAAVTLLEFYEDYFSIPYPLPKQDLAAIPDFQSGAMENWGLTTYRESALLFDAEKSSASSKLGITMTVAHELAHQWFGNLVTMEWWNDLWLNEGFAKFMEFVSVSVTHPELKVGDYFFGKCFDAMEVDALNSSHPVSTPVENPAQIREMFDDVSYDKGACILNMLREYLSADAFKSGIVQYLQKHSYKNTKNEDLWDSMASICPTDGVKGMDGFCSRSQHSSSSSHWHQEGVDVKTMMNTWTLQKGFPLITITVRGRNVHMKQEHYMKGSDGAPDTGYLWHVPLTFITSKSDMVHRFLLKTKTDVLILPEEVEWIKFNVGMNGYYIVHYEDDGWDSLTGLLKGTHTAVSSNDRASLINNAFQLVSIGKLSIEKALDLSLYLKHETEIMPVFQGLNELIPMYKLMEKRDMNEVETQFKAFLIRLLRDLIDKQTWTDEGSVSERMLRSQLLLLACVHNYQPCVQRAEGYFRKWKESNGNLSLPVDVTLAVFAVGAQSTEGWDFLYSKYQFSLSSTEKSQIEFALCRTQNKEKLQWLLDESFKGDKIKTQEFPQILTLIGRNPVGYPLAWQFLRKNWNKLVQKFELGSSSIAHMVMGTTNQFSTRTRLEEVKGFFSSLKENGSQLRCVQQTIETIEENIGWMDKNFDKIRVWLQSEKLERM
Aminopeptidase N, sequence (P15144 whole entry): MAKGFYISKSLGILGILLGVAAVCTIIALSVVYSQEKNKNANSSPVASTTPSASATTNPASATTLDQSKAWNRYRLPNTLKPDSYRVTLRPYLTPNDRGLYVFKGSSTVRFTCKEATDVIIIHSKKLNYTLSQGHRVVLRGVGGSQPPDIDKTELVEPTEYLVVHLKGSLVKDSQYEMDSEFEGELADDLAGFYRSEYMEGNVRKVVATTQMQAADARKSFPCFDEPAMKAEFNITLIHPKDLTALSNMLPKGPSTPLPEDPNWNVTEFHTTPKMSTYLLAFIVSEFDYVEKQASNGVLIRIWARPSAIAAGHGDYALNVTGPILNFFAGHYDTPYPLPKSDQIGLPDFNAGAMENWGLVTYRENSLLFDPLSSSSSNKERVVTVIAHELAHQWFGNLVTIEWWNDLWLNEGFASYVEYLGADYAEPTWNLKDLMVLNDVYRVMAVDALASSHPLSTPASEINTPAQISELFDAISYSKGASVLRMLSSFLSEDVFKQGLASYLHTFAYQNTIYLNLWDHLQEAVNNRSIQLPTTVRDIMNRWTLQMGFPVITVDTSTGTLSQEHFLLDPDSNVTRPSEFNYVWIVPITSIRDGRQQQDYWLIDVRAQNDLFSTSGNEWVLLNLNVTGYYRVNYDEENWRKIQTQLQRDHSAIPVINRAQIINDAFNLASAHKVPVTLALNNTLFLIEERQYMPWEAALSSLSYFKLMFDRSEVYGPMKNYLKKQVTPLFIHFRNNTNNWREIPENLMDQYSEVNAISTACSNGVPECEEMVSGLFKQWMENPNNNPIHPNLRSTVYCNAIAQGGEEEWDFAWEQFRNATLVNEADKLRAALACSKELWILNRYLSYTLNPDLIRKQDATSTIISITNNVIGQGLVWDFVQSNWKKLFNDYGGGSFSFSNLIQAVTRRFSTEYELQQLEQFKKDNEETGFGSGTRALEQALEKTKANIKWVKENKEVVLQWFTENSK
Cytosol aminopeptidase, sequence (P28838 whole entry): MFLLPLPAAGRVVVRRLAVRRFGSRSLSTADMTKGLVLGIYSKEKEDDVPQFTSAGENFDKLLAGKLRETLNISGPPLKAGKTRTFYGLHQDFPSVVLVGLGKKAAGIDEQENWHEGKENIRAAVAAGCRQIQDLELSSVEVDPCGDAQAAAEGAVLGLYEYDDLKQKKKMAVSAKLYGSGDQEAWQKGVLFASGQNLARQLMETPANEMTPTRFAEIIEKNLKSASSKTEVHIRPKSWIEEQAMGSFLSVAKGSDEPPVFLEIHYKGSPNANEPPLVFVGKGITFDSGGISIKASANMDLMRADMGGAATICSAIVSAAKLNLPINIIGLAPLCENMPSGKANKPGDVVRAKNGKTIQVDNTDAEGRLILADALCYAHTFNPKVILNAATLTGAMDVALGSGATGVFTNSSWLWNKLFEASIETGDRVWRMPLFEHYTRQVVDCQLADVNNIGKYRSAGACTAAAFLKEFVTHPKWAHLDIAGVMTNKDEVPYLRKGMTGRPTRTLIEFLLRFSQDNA

pIC50 [1]: 4.57
SMILES: COc1ccc(C(=O)O)cc1S(=O)(=O)Nc1ccc(C(F)(F)F)cc1N1CCCCC1

pIC50 (Aminopeptidase N): 8.10
pIC50 [2]: 6.21
pIC50 [3]: 6.96
SMILES: CC(C)C[C@H](N)CS

pIC50 [4]: < 4.00
SMILES: COc1ccc(C[C@@H](C(=O)NO)n2cc(CNS(=O)(=O)c3ccc(-c4ccccc4)s3)nn2)cc1

pIC50 [4]: < 4.00
SMILES: O=C(NO)[C@H](Cc1ccc(Oc2ccccc2)cc1)n1cc(CNS(=O)(=O)c2ccc(-c3ccccn3)s2)nn1

pIC50 [4]: < 4.00
SMILES: O=C(C[C@H](Cc1ccc(O)cc1)n1nncc1CNS(=O)(=O)c1ccc(-c2ccccn2)s1)NO

pIC50 [5]: 4.60
pIC50 [3]: 4.66
SMILES: CC(C)C[C@@H](N)[C@H](O)C(=O)N[C@H](C(=O)N[C@H](C(=O)N[C@@H](CC(=O)O)C(=O)O)C(C)C)C(C)C [AMASTATIN]

pIC50 (Aminopeptidase N): 7.52
pIC50 [2]: 6.11
pIC50 [3]: 4.74
pIC50 (Cytosol aminopeptidase): 8.30
pIC50 [6]: 8.10
SMILES: CC(C)C[C@@H](C(=O)N[C@H](C(=O)OC1CCCC1)c1ccccc1)[C@H](O)C(=O)NO [TOSEDOSTAT]

pIC50 [5]: < 4.00
pIC50 [3]: 4.96
SMILES: CC(C)C[C@H](NC(=O)[C@@H](O)[C@H](N)Cc1ccccc1)C(=O)O [UBENIMEX]
